Where no end group is shown, it is not given here.
What was measured:
[1] = system: membrane HSP70 on tumor-derived exosomes (B16F10, HCT116); assay: BLI binding of tumor-derived exosomes to immobilized biotinylated A8, with or without cmHSP70
Procedure: FIG. 1: Tumor-derived exosomes in cancer patient′ samples express HSP70. (A) The binding of exosomes (10^6), derived from the B16F10, HCT116 cell lines, with or without previous incubation with cmHSP70, to immobilized biotinylated A8 was determined by biolayer interferometry. (B) Association curves of HSP70-exosomes in patients' urines (1 breast, 1 pulmonary) or healthy individuals (controls) with biotinylated A8 immobilized on streptavidin sensor tips. Curves represent mean values of triplicate measurements for each concentration. (C) Exosomes expressing HSP70 were determined by FACS in urine samples from healthy individuals (n=5) and cancer metastatic cancer patients (5 breast, 4 pulmonary). The bar graph presents the means and standard deviations of the vesicle concentrations. (D) Nanoparticle Tracking Analysis (NTA) to quantify total number of exosomes in urine human samples (urines) described above. Samples were diluted in PBS and analyzed using a NanoSight LM10 instrument. Inset values represent the total number of exosomes counted 10̂^9/ml.
Protein-protein interaction experiments were conducted at 25° C. in PBS with an Octet Red instrument (Forte Bio, Menlo Park, Calif., USA) by biolayer interferometry (BLI). […] Each KD was determined with a 1:1 stoichiometry model using a global fit with Rmax unlinked by sensor (Forte Bio, Data analysis software version 7.1.0.89). […]

[2] = system: MSC2 cells; assay: MSC2 proliferation (RTCA-DP, BrdU); type: cell-based; details: exosomes from B16F10, A8 16 μM and 32 μM
Procedure: FIG. 9: TDE and A8 effects on MSC2 and MDSC proliferation. A) Dynamic monitoring of in vitro MSC2 cell proliferation using the RTCA-DP system (Real-Time Cell Analyzer). MSC2 were incubated or not for 11 h with exosomes (from B16F10) in the absence or presence of A8 (16 μM and 32 μM). Cell index values were measured every 30 seconds (n=3). B) MSC2 were incubated or not for 24 h with exosomes (from B16F10) in the absence or presence of A8 (16 μM). Then, cells were labelled with BrdU and incorporation was determined by flow cytometry (n=3). C) MDSC were treated with exosomes (from B16F10) in the absence or presence of A8 ([…]) for 24 hours and then analyzed for proliferation by Cellometer-mini. *p<0.05.
MSC2 cells proliferation were analyzed by to different techniques. First, MSC2 (1·10^4) were seeded onto 16-well plates with medium containing 10% FBS and incubated for 34 hours. […] Into each well of the micro-electronic sensor transendothelial electric resistance (TER) was measured by xCELLigence real time cell analyzer DP system (Roche). TER was measured every 30 s and then normalized to the initial value. […] MDSC proliferation was analyzed by cell counting. MDSC cells (1·10^6) from spleen of naive mice (see MDSC isolation section) were treated or not with exosomes (from B16F10) in the absence or presence of A8 (16 μM) for 24 hours and then analyzed for viability by Cellometer-mini (Ozyme).

[3] = system: MSC2 cells; assay: IL-6 ELISA in supernatant of MSC2 cells incubated with exosomes; type: cell-based; details: exosomes from B16F10, 24 h
Procedure: FIG. 4: A8 blocks the activation and proliferation of MSC2 cells. (A) IL-6 concentration was determined by ELISA in the supernatant of MSC2 cells incubated or not for 24 h with exosomes (from B16F10) in the presence or absence of A8. *, p<0.05, (n=3). (B) A representative image of a western blot showing the kinetics of STAT3 phosphorylation in MCS2 cells incubated or not with exosomes isolated from B16F10, CT26 or HCT116 cells together with a peptide control (TDE) or A8 (TDE/A8). 14-3-3 is used as a loading control. In the right panels, the amount of pSTAT3 was quantified by densitometric analysis. *, p<0.05, n=4.
MSC2 cells were incubated alone or co-incubated with exosomes from B16F10 cells and/or A8 (during 24 h). Then, the supernatant was collected and centrifuged at 300 g at 4° C. for 5 min and analyzed with IL-6 ELISA assay (BD biosciences) according to the manufacturers' protocol.
Supernatants, collected from MSC2 or MDSC or co-cultured cells incubated alone or with exosomes from B16F10 cells and/or A8 (8 or 16 μM) were analyzed with IL-6, IL-10 and IFN gamma ELISA assay (BD biosciences) according to the manufacturers' protocol.

[4] = after systemic administration; cited from earlier work

With SPWPRPTY [Aptamer A8, SPWPRPTY] as the sequence, how does the “ability of cmHSP70 to bind to HSP70 (competition)” value [1] read?
Its value is “in a dose dependent manner, decreased the ability of cmHSP70 to bind to HSP70”.

What about the “capture of exosomes through interaction with membrane-HSP70” value ([1]; immobilized biotinylated A8, exosomes (10^6)) of the same sequence?
The value was “efficiently captured exosomes”.

And the “TDE-induced proliferation of MSC2” value [2]?
The value was “blocked”.

What about the “IL-6 production by MSC2 stimulated by tumor-derived exosomes” value [3] of the same sequence?
The value was “abrogated”.

And the “biodistribution (localization of the peptide)” value [4]?
Its value is “localizes mainly in the tumor area”.
